Laboratory results taken from patent US6355799B1, “Substituted benzene compounds, process for their preparation, and herbicidal and defoliant compositions containing them” (ISK Americas Incorporated, priority 1997, dated 2002).

How the values were obtained:
Format in all cases: in vivo
[1] = tested on: barnyardgrass (Echinochloa crus-galli, ECHCG); assay: Post-emerge test, greenhouse herbicide activity screening; conditions: post-emerge; for Post-emerge Herbicidal Activity ECHCG (phytotoxicity rating): 14 days after application, rating scale 0-100; for Post-emerge Herbicidal Activity ECHCG: phytotoxicity rating 0-100 at 14 days after application
Method in brief: (§1)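 Compounds in acetone were track-sprayed at 187 l/ha, 15–1000 g ai/ha, onto sandy loam pots. Pre-emerge seeds were sown one day before spraying, with surface watering afterwards. Post-emerge plants were at the 2–3 leaf stage and sprayed with 0.25% v/v non-ionic surfactant. Injury was rated 0–100 at 14 days.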

[2] = tested on: large crabgrass (Digitaria sanguinalis, DIGSA); assay: as above; conditions: post-emerge; for Post-emerge Herbicidal Activity DIGSA (phytotoxicity rating): 14 days after application, rating scale 0-100; for Post-emerge Herbicidal Activity DIGSA: phytotoxicity rating 0-100 at 14 days after application
Method in brief: as §1

[3] = tested on: green foxtail (Setaria viridis, SETVI); assay: as above; conditions: post-emerge; for Post-emerge Herbicidal Activity SETVI (phytotoxicity rating): 14 days after application, rating scale 0-100; for Post-emerge Herbicidal Activity SETVI: phytotoxicity rating 0-100 at 14 days after application
Method in brief: as §1

[4] = tested on: velvetleaf (Abutilon theophrasti, ABUTH); assay: as above; conditions: post-emerge; for Post-emerge Herbicidal Activity ABUTH (phytotoxicity rating): 14 days after application, rating scale 0-100; for Post-emerge Herbicidal Activity ABUTH: phytotoxicity rating 0-100 at 14 days after application
Method in brief: as §1

[5] = tested on: lambsquarters (Chenopodium album, CHEAL); assay: as above; conditions: post-emerge; for Post-emerge Herbicidal Activity CHEAL (phytotoxicity rating): 14 days after application, rating scale 0-100; for Post-emerge Herbicidal Activity CHEAL: phytotoxicity rating 0-100 at 14 days after application
Method in brief: as §1

[6] = tested on: sicklepod (Cassia obtusifolia, CASOB); assay: as above; conditions: post-emerge; for Post-emerge Herbicidal Activity CASOB (phytotoxicity rating): 14 days after application, rating scale 0-100; for Post-emerge Herbicidal Activity CASOB: phytotoxicity rating 0-100 at 14 days after application
Method in brief: as §1

[7] = tested on: redroot pigweed (Amaranthus retroflexus, AMARE); assay: as above; conditions: post-emerge; for Post-emerge Herbicidal Activity AMARE (phytotoxicity rating): 14 days after application; for Post-emerge Herbicidal Activity AMARE: phytotoxicity rating 0-100 at 14 days after application
Method in brief: as §1

[8] = tested on: ivyleaf morningglory (Ipomoea hederacea, IPOHE); assay: as above; conditions: post-emerge; for Post-emerge Herbicidal Activity IPOHE (phytotoxicity rating): 14 days after application, rating scale 0-100; for Post-emerge Herbicidal Activity IPOHE: phytotoxicity rating 0-100 at 14 days after application
Method in brief: as §1

[9] = tested on: johnsongrass (Sorghum halepense, SORHA); assay: as above; conditions: post-emerge, 14 days after application, rating scale 0-100
Method in brief: as §1

[10] = tested on: upland rice (Oryza sp., var. Tebonnet, RICE); assay: Post-emerge test, crop safety; conditions: post-emerge; for Post-emerge Herbicidal Activity RICE (crop damage rating): 14 days after application, rating scale 0-100; for Post-emerge Herbicidal Activity RICE: crop damage rating 0-100 at 14 days after application
Method in brief: (§2)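 Visual ratings on a 0-100 scale (0 no damage, 100 all plants dead) were taken at 14 days after treatment. Rates of 15-1000 g ai/ha in acetone, 187 l/ha, were sprayed onto soil one day after planting (pre-emerge) or onto 2-3 leaf plants with 0.25% v/v surfactant (post-emerge).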

[11] = tested on: field corn (Zea mays L., var. Dekalb 535, CORN); assay: Post-emerge test, crop safety; conditions: post-emerge; for Post-emerge Herbicidal Activity CORN (crop damage rating): 14 days after application, rating scale 0-100; for Post-emerge Herbicidal Activity CORN: crop damage rating 0-100 at 14 days after application
Method in brief: as §2

[12] = tested on: upland rice (Oryza sp., var. Tebonnet, RICE); assay: Pre-emerge test, crop safety; conditions: crop damage, pre-emerge, phytotoxicity rating 0-100 at 14 days after application
Method in brief: as §2

[13] = tested on: field corn (Zea mays L., var. Dekalb 535, CORN); assay: Pre-emerge test, crop safety; conditions: crop damage, pre-emerge, phytotoxicity rating 0-100 at 14 days after application
Method in brief: as §2

[14] = tested on: barnyardgrass (Echinochloa crus-galli, ECHCG); assay: Pre-emerge test, greenhouse herbicide activity screening; conditions: pre-emerge, phytotoxicity rating 0-100 at 14 days after application
Method in brief: as §2

[15] = tested on: large crabgrass (Digitaria sanguinalis, DIGSA); assay: as above; conditions: pre-emerge, phytotoxicity rating 0-100 at 14 days after application
Method in brief: as §2

[16] = tested on: green foxtail (Setaria viridis, SETVI); assay: as above; conditions: pre-emerge, phytotoxicity rating 0-100 at 14 days after application
Method in brief: as §2

[17] = tested on: velvetleaf (Abutilon theophrasti, ABUTH); assay: as above; conditions: pre-emerge, phytotoxicity rating 0-100 at 14 days after application
Method in brief: as §2

[18] = tested on: lambsquarters (Chenopodium album, CHEAL); assay: as above; conditions: pre-emerge, phytotoxicity rating 0-100 at 14 days after application
Method in brief: as §2

[19] = tested on: sicklepod (Cassia obtusifolia, CASOB); assay: as above; conditions: pre-emerge, phytotoxicity rating 0-100 at 14 days after application
Method in brief: as §2

[20] = tested on: ivyleaf morningglory (Ipomoea hederacea, IPOHE); assay: as above; conditions: pre-emerge, phytotoxicity rating 0-100 at 14 days after application
Method in brief: as §2

[21] = tested on: johnsongrass (Sorghum halepense, SORHA); assay: as above; conditions: pre-emerge, phytotoxicity rating 0-100 at 14 days after application
Method in brief: as §2

[22] = tested on: redroot pigweed (Amaranthus retroflexus, AMARE); assay: as above; conditions: pre-emerge, phytotoxicity rating 0-100 at 14 days after application
Method in brief: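 Compounds in acetone were track-sprayed at 15-1000 g ai/ha (187 l/ha) on sandy loam pots: pre-emerge one day after seeding, post-emerge at 2-3 leaf stage with 0.25% v/v non-ionic surfactant. Phytotoxicity was rated 14 days later on a 0 (no damage) to 100 (complete death) scale.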

With `Cn1c(C(F)(F)F)cc(=O)n(-c2c(Cl)cc(Cl)cc2OC(=O)c2ccc(F)cc2F)c1=O` [16-4] the “Post-emerge Herbicidal Activity ECHCG (phytotoxicity rating)” value ([1]; 63 g ai/ha) was 0, the “Post-emerge Herbicidal Activity ECHCG (phytotoxicity rating)” value ([1]; 250 g ai/ha) was 0 and the “Post-emerge Herbicidal Activity DIGSA (phytotoxicity rating)” value ([2]; 63 g ai/ha) was 0. For the same molecule, the “Post-emerge Herbicidal Activity DIGSA (phytotoxicity rating)” value ([2]; 250 g ai/ha) was 0, the “Post-emerge Herbicidal Activity SETVI (phytotoxicity rating)” value ([3]; 63 g ai/ha) was 0 and the “Post-emerge Herbicidal Activity SETVI (phytotoxicity rating)” value ([3]; 250 g ai/ha) was 0. The “Post-emerge Herbicidal Activity ABUTH (phytotoxicity rating)” value ([4]; 63 g ai/ha) was 0, the “Post-emerge Herbicidal Activity ABUTH (phytotoxicity rating)” value ([4]; 250 g ai/ha) was 0 and the “Post-emerge Herbicidal Activity CHEAL (phytotoxicity rating)” value ([5]; 63 g ai/ha) was 0. For the same molecule, the “Post-emerge Herbicidal Activity CHEAL (phytotoxicity rating)” value ([5]; 250 g ai/ha) was 0, the “Post-emerge Herbicidal Activity CASOB (phytotoxicity rating)” value ([6]; 63 g ai/ha) was 0 and the “Post-emerge Herbicidal Activity CASOB (phytotoxicity rating)” value ([6]; 250 g ai/ha) was 0. The “Post-emerge Herbicidal Activity AMARE (phytotoxicity rating)” value ([7]; 63 g ai/ha, rating scale 0-100 (0 no damage, 100 complete death)) was 0, the “Post-emerge Herbicidal Activity AMARE (phytotoxicity rating)” value ([7]; 250 g ai/ha, rating scale 0-100) was 0 and the “Post-emerge Herbicidal Activity IPOHE (phytotoxicity rating)” value ([8]; 63 g ai/ha) was 0. The “Post-emerge Herbicidal Activity IPOHE (phytotoxicity rating)” value ([8]; 250 g ai/ha) was 0, the “Post-emerge Herbicidal Activity SORHA (phytotoxicity rating)” value ([9]; 63 g ai/ha) was 0 and the “Post-emerge Herbicidal Activity SORHA (phytotoxicity rating)” value ([9]; 250 g ai/ha) was 0. The “Post-emerge Herbicidal Activity RICE (crop damage rating)” value ([10]; 63 g ai/ha) was 0, the “Post-emerge Herbicidal Activity RICE (crop damage rating)” value ([10]; 250 g ai/ha) was 0 and the “Post-emerge Herbicidal Activity CORN (crop damage rating)” value ([11]; 63 g ai/ha) was 0. The “Post-emerge Herbicidal Activity CORN (crop damage rating)” value ([11]; 250 g ai/ha) was 0.
In the case of `COc1c(Cl)cc(F)c(-n2nnn(CCCF)c2=O)c1NC(=O)COCc1ccccc1` [Compound 5-28], the “Pre-emerge Herbicidal Activity RICE” value ([12]; rate 63 g ai/ha) is reported as 30, the “Pre-emerge Herbicidal Activity RICE” value ([12]; rate 250 g ai/ha) is reported as 60 and the “Pre-emerge Herbicidal Activity CORN” value ([13]; rate 63 g ai/ha) is reported as 10. The “Pre-emerge Herbicidal Activity CORN” value ([13]; rate 250 g ai/ha) was 20, the “Post-emerge Herbicidal Activity ECHCG” value ([1]; 63 g ai/ha) was 0 and the “Post-emerge Herbicidal Activity ECHCG” value ([1]; 250 g ai/ha) was 50. The “Post-emerge Herbicidal Activity DIGSA” value ([2]; 63 g ai/ha) was 10, the “Post-emerge Herbicidal Activity DIGSA” value ([2]; 250 g ai/ha) was 30 and the “Post-emerge Herbicidal Activity SETVI” value ([3]; 63 g ai/ha) was 10. The “Post-emerge Herbicidal Activity SETVI” value ([3]; 250 g ai/ha) was 30, the “Post-emerge Herbicidal Activity ABUTH” value ([4]; 63 g ai/ha) was 100 and the “Post-emerge Herbicidal Activity ABUTH” value ([4]; 250 g ai/ha) was 100. For the same molecule, the “Post-emerge Herbicidal Activity CHEAL” value ([5]; 63 g ai/ha) was 100, the “Post-emerge Herbicidal Activity CHEAL” value ([5]; 250 g ai/ha) was 100 and the “Post-emerge Herbicidal Activity CASOB” value ([6]; 63 g ai/ha) was 90. For the same molecule, the “Post-emerge Herbicidal Activity CASOB” value ([6]; 250 g ai/ha) was 100, the “Post-emerge Herbicidal Activity AMARE” value ([7]; 63 g ai/ha) was 100 and the “Post-emerge Herbicidal Activity AMARE” value ([7]; 250 g ai/ha) was 100. For the same molecule, the “Post-emerge Herbicidal Activity IPOHE” value ([8]; 63 g ai/ha) was 100, the “Post-emerge Herbicidal Activity IPOHE” value ([8]; 250 g ai/ha) was 100 and the “Pre-emerge Herbicidal Activity ECHCG” value ([14]; rate 63 g ai/ha) was 30. The “Pre-emerge Herbicidal Activity ECHCG” value ([14]; rate 250 g ai/ha) was 60, the “Pre-emerge Herbicidal Activity DIGSA” value ([15]; rate 63 g ai/ha) was 30 and the “Pre-emerge Herbicidal Activity DIGSA” value ([15]; rate 250 g ai/ha) was 90. For the same molecule, the “Pre-emerge Herbicidal Activity SETVI” value ([16]; rate 63 g ai/ha) was 50, the “Pre-emerge Herbicidal Activity SETVI” value ([16]; rate 250 g ai/ha) was 85 and the “Pre-emerge Herbicidal Activity ABUTH” value ([17]; rate 63 g ai/ha) was 100. The “Pre-emerge Herbicidal Activity ABUTH” value ([17]; rate 250 g ai/ha) was 100, the “Pre-emerge Herbicidal Activity CHEAL” value ([18]; rate 63 g ai/ha) was 100 and the “Pre-emerge Herbicidal Activity CHEAL” value ([18]; rate 250 g ai/ha) was 100. For the same molecule, the “Pre-emerge Herbicidal Activity CASOB” value ([19]; rate 63 g ai/ha) was 100, the “Pre-emerge Herbicidal Activity CASOB” value ([19]; rate 250 g ai/ha) was 100 and the “Pre-emerge Herbicidal Activity IPOHE” value ([20]; rate 63 g ai/ha) was 60. The “Pre-emerge Herbicidal Activity IPOHE” value ([20]; rate 250 g ai/ha) was 100, the “Pre-emerge Herbicidal Activity SORHA” value ([21]; rate 63 g ai/ha) was 20 and the “Pre-emerge Herbicidal Activity SORHA” value ([21]; rate 250 g ai/ha) was 30. For the same molecule, the “Pre-emerge Herbicidal Activity AMARE” value ([22]; rate 63 g ai/ha) was 100, the “Pre-emerge Herbicidal Activity AMARE” value ([22]; rate 250 g ai/ha) was 100 and the “Post-emerge Herbicidal Activity RICE” value ([10]; 63 g ai/ha) was 60. The “Post-emerge Herbicidal Activity RICE” value ([10]; 250 g ai/ha) was 70, the “Post-emerge Herbicidal Activity CORN” value ([11]; 63 g ai/ha) was 25 and the “Post-emerge Herbicidal Activity CORN” value ([11]; 250 g ai/ha) was 70.
